The term IC50 denotes the concentration at which inhibition is half-maximal. A low value points to greater potency in that assay. By melting point is commonly meant the temperature, or range, at which the solid turns liquid.

We go through 15 compounds from patent US8507690B2, “Thiazole derivative and use thereof as VAP-1 inhibitor” (R-Tech Ueno, Ltd., priority 2008, dated 2013).

Data set [1] has as its target T1, rat VAP-1 enzyme (SSAO) (Rattus norvegicus, UniProt O08590).
T1 construct: made in house; cell extract used
T1 sequence (O08590 1-763): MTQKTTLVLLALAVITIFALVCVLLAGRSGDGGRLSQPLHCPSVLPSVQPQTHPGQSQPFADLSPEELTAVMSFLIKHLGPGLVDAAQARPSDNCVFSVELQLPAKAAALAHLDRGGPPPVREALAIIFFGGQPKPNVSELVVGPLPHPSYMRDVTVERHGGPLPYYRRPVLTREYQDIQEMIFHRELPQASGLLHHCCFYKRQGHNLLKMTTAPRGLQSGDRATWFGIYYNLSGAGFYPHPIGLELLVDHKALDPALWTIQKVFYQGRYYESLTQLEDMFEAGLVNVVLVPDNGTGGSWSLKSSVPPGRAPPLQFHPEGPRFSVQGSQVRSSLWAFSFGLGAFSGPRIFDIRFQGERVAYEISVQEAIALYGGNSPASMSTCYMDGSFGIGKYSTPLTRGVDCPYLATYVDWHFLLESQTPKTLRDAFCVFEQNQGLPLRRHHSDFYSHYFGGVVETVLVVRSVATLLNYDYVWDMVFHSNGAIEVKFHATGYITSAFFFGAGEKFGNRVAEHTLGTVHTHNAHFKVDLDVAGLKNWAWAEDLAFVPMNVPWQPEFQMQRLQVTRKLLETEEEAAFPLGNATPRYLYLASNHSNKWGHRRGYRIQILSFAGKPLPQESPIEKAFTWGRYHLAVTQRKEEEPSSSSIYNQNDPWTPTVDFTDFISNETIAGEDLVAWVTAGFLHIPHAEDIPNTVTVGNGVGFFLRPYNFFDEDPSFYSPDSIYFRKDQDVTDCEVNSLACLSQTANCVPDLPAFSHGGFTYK
Nature of the data set: Enzyme activity inhibitory effect on rat VAP-1 enzyme (SSAO), radiochemical-enzyme assay with 14C-benzylamine. As to conditions: rat VAP-1 (SSAO) cell extract, 14C-benzylamine 1×10^−5 mol/l, 37° C. 2 hours. In kind it is biochemical. As for the experimental part: (§1) The compounds of the present invention obtained in Production Examples were examined for the enzyme activity inhibitory effect on human and rat VAP-1 enzyme (SSAO) by the following method.
(§2) The VAP-1 enzyme (SSAO) activity in both human and rat was measured by a radiochemical-enzyme assay using ^14C-benzylamine as an artificial substrate. Human or rat VAP-1 was cloned from the cDNA library and expressed in a cell. The cell extract was preincubated with a test compound solution (final concentration 1×10^−7-1×10^−11 mol/l) at room temperature for 20 minutes. Then, ^14C-benzylamine (final concentration 1×10^−5 mol/l) was added, and the mixture was incubated at a final volume of 200 μl at 37° C. for 2 hours. The enzyme reaction was stopped by addition of 2 mol/l (200 μl) citric acid. The oxidation product was extracted with 1 ml toluene/ethyl acetate (1:1), and the radioactivity thereof was measured by a liquid scintillation counter.

Data set [2] addresses T2, human VAP-1 enzyme (SSAO) (Homo sapiens, UniProt Q16853).
T2 construct: made in house; cell extract used
T2 sequence (Q16853 1-763): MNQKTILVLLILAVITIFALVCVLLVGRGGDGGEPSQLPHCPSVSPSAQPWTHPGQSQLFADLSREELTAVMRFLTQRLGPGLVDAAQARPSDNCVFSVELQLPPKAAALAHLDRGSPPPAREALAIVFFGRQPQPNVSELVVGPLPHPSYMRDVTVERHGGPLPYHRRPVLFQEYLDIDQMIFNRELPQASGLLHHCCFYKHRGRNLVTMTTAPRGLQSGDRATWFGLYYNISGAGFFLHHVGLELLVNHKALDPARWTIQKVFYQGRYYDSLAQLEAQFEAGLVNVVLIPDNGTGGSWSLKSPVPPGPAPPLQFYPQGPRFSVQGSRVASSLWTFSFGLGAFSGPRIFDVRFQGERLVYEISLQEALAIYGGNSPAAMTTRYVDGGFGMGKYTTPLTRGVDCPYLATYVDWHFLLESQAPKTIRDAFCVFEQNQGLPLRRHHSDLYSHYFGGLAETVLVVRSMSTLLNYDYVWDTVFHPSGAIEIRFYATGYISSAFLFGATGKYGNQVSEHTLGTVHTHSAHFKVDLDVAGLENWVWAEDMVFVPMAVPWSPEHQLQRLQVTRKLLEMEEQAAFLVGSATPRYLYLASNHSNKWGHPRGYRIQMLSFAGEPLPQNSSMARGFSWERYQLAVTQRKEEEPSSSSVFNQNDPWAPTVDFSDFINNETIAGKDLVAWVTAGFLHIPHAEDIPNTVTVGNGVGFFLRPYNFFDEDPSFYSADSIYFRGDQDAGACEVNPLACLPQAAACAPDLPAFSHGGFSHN
The data set is described as follows: Enzyme activity inhibitory effect on human VAP-1 enzyme (SSAO), radiochemical-enzyme assay with 14C-benzylamine. As to conditions: human VAP-1 (SSAO) cell extract, 14C-benzylamine 1×10^−5 mol/l, 37° C. 2 hours. The data set is classed as biochemical. As to the method:
as §1, §2

On to `CC(=O)Nc1nc(CCc2cccc(COC(=O)NN)c2)cs1.Cl` [Production Example 11, 3-{2-[2-(acetylamino)-1,3-thiazol-4-yl]ethyl}benzyl hydrazinecarboxylate hydrochloride], for which the melting point lay in the range of 113 to 119 °C. Besides, 0.2 nM corresponded to half-maximal inhibition in data set [1] (IC50). Also, the IC50 in data set [2] is 1.3 nM.

Consider `CC(=O)Nc1nc(CCc2cccc(CCOC(=O)NN)c2)cs1.Cl` [Production Example 12, 2-(3-{2-[2-(acetylamino)-1,3-thiazol-4-yl]ethyl}phenyl)ethyl hydrazinecarboxylate hydrochloride], for which the melting point fell in the range of 138 to 140 °C. The IC50 in data set [1] was found to be 0.5 nM. The compound also returned an IC50 in data set [2] of 3.2 nM.

Regarding `CC(=O)Nc1nc(CCc2csc(CCCOC(=O)NN)c2)cs1.Cl` [Production Example 15, 3-(4-{2-[2-(acetylamino)-1,3-thiazol-4-yl]ethyl}thiophen-2-yl)propyl hydrazinecarboxylate hydrochloride], the melting point was in the range of 150 to 153 °C. Further, the IC50 in data set [1] amounted to 0.6 nM. In addition, the IC50 in data set [2] came to 13.4 nM.

The compound `CC(=O)Nc1nc(CCc2cc(CCCOC(=O)NN)cs2)cs1.Cl` [Production Example 16, 3-(5-{2-[2-(acetylamino)-1,3-thiazol-4-yl]ethyl}thiophen-3-yl)propyl hydrazinecarboxylate hydrochloride] showed a melting point of 98 to 102 °C. Also, the IC50 in data set [1] turned out to be 10.5 nM. The same compound registered an IC50 in data set [2] of 16.7 nM.

On to `CC(=O)Nc1nc(CCc2cc(C)c(CCCOC(=O)NN)s2)cs1.Cl` [Production Example 17, 3-(5-{2-[2-(acetylamino)-1,3-thiazol-4-yl]ethyl}-3-methylthiophen-2-yl)propyl hydrazinecarboxylate hydrochloride], for which the melting point fell in the range of 111 to 115 °C. The compound further showed an IC50 in data set [1] of 5 nM. Also, the IC50 in data set [2] came to 68.7 nM.

`CC(=O)Nc1nc(CCc2ccc(CNC(=O)NN)cc2)cs1.Cl` [Production Example 18, N-(4-{2-[2-(acetylamino)-1,3-thiazol-4-yl]ethyl}benzyl)hydrazinecarboxamide hydrochloride]: the melting point was in the range of 167 to 169 °C. This compound had an IC50 in data set [1] of 1.3 nM. Further, the IC50 in data set [2] was 4 nM.

In turn, `CC(=O)Nc1nc(CCc2ccc(CCNC(=O)NN)cc2)cs1.Cl` [Production Example 19, N-[2-(4-{2-[2-(acetylamino)-1,3-thiazol-4-yl]ethyl}phenyl)ethyl]hydrazinecarboxamide hydrochloride] displayed a melting point of 171 to 173 °C. This compound showed an IC50 in data set [1] of 2.3 nM. This compound displayed an IC50 in data set [2] of 12.2 nM.

Compound `CC(=O)Nc1nc(CCc2ccc(CNC(=O)NN)c(F)c2)cs1.Cl` [Production Example 20, N-(4-{2-[2-(acetylamino)-1,3-thiazol-4-yl]ethyl}-2-fluorobenzyl)hydrazinecarboxamide hydrochloride] showed a melting point of 172 to 175 °C. In data set [1], it took 1.6 nM to reach half-maximal inhibition (IC50). In data set [2], this compound returned an IC50 of 2.8 nM.

For `CC(=O)Nc1nc(C(=O)Oc2ccc(CCNC(=O)NN)cc2)cs1.Cl` [Production Example 26, 4-{2-[(hydrazinocarbonyl)amino]ethyl}phenyl 2-(acetylamino)-1,3-thiazole-4-carboxylate hydrochloride], the melting point was in the range of 204 to 207 °C. In data set [1], this compound had a concentration for half-maximal inhibition (IC50) of 3.3 nM. In data set [2], this compound returned an IC50 of 13.3 nM.

In turn, `CC(=O)Nc1nc(CCc2cccc(CNC(=O)NN)c2)cs1.Cl` [Production Example 27, N-(3-{2-[2-(acetylamino)-1,3-thiazol-4-yl]ethyl}benzyl)hydrazinecarboxamide hydrochloride] showed a melting point of 123 to 127 °C. The IC50 in data set [1] worked out at 0.6 nM. Further, in data set [2], half-maximal inhibition (IC50) was put at 2.1 nM.

In the case of `CC(=O)Nc1nc(CCc2cccc(CCNC(=O)NN)c2)cs1.Cl` [Production Example 28, N-[2-(3-{2-[2-(acetylamino)-1,3-thiazol-4-yl]ethyl}phenyl)ethyl]hydrazinecarboxamide hydrochloride], the melting point lay within 176 to 179 °C. In data set [1], this compound returned an IC50 of 5.6 nM. In data set [2], this compound yielded an IC50 of 44.3 nM.

In turn, `CC(=O)Nc1nc(CCc2ccc(CNC(=O)NN)s2)cs1.Cl` [Production Example 29, N-[2-(5-{2-[2-(acetylamino)-1,3-thiazol-4-yl]ethyl}thiophen-2-yl)methyl]hydrazinecarboxamide hydrochloride] displayed a melting point of 158 to 161 °C. The same compound came in with an IC50 in data set [1] of 0.6 nM. The compound further had an IC50 in data set [2] of 1.8 nM.

In the case of `CC(=O)Nc1nc(CCc2ccc(CCNC(=O)NN)s2)cs1.Cl` [Production Example 30, N-[2-(5-{2-[2-(acetylamino)-1,3-thiazol-4-yl]ethyl}thiophen-2-yl)ethyl]hydrazinecarboxamide hydrochloride], the melting point is 178 to 181 °C. This compound showed an IC50 in data set [1] of 3.8 nM. Moreover, the midpoint of inhibition in data set [2], the IC50, lay at 18.8 nM.

The compound `CC(=O)Nc1nc(CCc2cc(C)c(CCCNC(=O)NN)s2)cs1.Cl` [Production Example 33, N-[3-(5-{2-[2-(acetylamino)-1,3-thiazol-4-yl]ethyl}-3-methylthiophen-2-yl)propyl]hydrazinecarboxamide hydrochloride] yielded a melting point of 152 to 157 °C. Also, inhibition in data set [1] was half-maximal at 2.1 nM (IC50). In data set [2], this compound gave an IC50 of 108 nM.

`CC(=O)Nc1nc(CCc2ccc(CSC(=O)NN)cc2)cs1.Cl` [Production Example 34, S-(4-{2-[2-(acetylamino)-1,3-thiazol-4-yl]ethyl}benzyl) hydrazinecarbothioate hydrochloride] registered a melting point of 149 to 158 °C. This compound displayed an IC50 in data set [1] of 4.6 nM. In addition, the IC50 in data set [2] came out at 23.2 nM.
